Data as given in patent US20240279278A1, “NMU RECEPTOR 2 AGONISTS” (Boehringer Ingelheim International GmbH, priority 2023, published 2024).
Residues, ends and D or L forms follow the SMILES beside them.

Key:
Assay type in all cases: cell-based
human NMUR2 receptor [1] = molecular target: T1, human NMUR2 receptor (Homo sapiens, UniProt Q9GZQ4); experiment: IP1 Gq HTRF assay, activation of human NMUR2 in buffer; parameters: expressed in transfected cells; host or cells: CHO-K1; settings: CHO-K1 cells expressing human NMUR2, stimulation buffer with 0.1% BSA; read-out: EC50 (hNMUR2) buffer
How it was run: (§1)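 CHO-K1 cells stably expressing human NMUR1 or NMUR2, seeded 24 h before assay, stimulated with peptide agonists (8-point dose-response, 1% DMSO final) in HEPES/HBSS buffer with 50 mM LiCl and 0.1% BSA, pH 7.4, 1 h at 37 °C. IP1 accumulation read by HTRF competition (665/620 nm); EC50 from 4-parameter sigmoidal fit.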

human NMUR1 receptor = molecular target: T2, human NMUR1 receptor (Homo sapiens, UniProt Q9HB89); experiment: IP1 Gq HTRF assay, activation of human NMUR1 in buffer; settings: CHO-K1 cells expressing human NMUR1, stimulation buffer with 0.1% BSA; read-out: EC50 (hNMUR1) buffer
T2 construct: expressed in transfected cells; host or cells: CHO-K1
T2 sequence (Q9HB89 1-426): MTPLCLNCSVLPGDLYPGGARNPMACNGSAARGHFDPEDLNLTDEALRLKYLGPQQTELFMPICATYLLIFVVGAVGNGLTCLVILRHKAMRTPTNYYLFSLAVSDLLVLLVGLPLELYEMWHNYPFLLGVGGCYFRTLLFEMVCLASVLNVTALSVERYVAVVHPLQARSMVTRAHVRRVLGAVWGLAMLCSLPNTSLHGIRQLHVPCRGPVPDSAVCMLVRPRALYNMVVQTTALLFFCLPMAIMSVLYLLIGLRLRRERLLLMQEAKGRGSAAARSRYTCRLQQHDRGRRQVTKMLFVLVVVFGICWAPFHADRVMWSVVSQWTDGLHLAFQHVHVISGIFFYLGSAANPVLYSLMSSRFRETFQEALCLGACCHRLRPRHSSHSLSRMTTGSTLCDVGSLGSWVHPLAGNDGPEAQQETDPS
How it was run: as §1

human NMUR2 receptor [2] = molecular target: T1, human NMUR2 receptor; experiment: IP1 Gq HTRF assay, activation of human NMUR2 in human plasma; parameters: expressed in transfected cells; host or cells: CHO-K1; settings: CHO-K1 cells expressing human NMUR2, 100% human plasma; read-out: EC50 (hNMUR2) human plasma
How it was run: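 CHO-K1 cells stably expressing human NMUR2 exposed to peptide agonists (8-point dose-response) in 100% human plasma with 50 mM LiCl, 1% DMSO, for 1 h at 37° C. IP1 accumulation read by HTRF competition (665/620 nm ratio). EC50 from 4-parameter sigmoidal fit.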

T1 sequence (Q9GZQ4 whole entry): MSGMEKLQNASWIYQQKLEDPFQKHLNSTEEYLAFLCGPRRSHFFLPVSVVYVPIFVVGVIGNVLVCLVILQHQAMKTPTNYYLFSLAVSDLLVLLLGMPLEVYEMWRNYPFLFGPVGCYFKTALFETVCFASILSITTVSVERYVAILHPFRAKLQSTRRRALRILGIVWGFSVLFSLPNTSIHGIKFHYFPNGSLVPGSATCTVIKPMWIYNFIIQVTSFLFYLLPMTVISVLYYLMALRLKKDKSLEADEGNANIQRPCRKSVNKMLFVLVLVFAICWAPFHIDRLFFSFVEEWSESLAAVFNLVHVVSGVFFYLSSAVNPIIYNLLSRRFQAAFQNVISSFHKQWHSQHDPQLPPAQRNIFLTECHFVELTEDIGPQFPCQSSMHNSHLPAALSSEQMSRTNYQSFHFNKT

Compound | EC50 (human NMUR2 receptor [1]) [nM] | EC50 (human NMUR1 receptor) [nM] | EC50 (human NMUR2 receptor [2]) [nM]
CCCC[C@H](NC(=O)[C@H](CC(C)C)N(C)C(=O)[C@H](Cc1ccccc1)NC(=O)[C@H](Cc1ccc(O)cc1)NC(=O)CN1CCN(CCNC(=O)CN(C)C(=O)CN(C)C(=O)CN(C)C(=O)CN(C)C(=O)CN(C)C(=O)CN(C)C(=O)CN(C)C(=O)CN(C)C(=O)CN(C)C(=O)CC[C@H](NC(=O)CC[C@H](NC(=O)CC[C@H](NC(=O)CCCCCCCCCCCCCCCCCCC(=O)O)C(=O)O)C(=O)O)C(=O)O)CC1)C(=O)N[C@@H](CCN)C(=O)N(C)[C@@H](C)C(=O)N[C@@H](CCCNC(=N)N)C(=O)NCC(N)=O [Compound 61, C20DA-gGlu3-Sar9-AEPipAc-Tyr-Phe-NMeLeu-Nle-Dbu-NMeAla-Arg-Gly-NH2] (HELM PEPTIDE1{[O=C(O)CCCCCCCCCCCCCCCCCCC(=O)[*:2]].[gGlu].[gGlu].[gGlu].[Sar].[Sar].[Sar].[Sar].[Sar].[Sar].[Sar].[Sar].[Sar].[O=C(CN1CCN(CCN[*:1])CC1)[*:2]].Y.F.[meL].[Nle].[Dab].[meA].R.G.[am]}$$$$V2.0) | 4.6 | > 1000 | 14.1
CCCC[C@H](NC(=O)[C@H](CC(C)C)N(C)C(=O)[C@H](Cc1ccccc1)NC(=O)[C@H](Cc1ccc(O)cc1)NC(=O)CN1CCN(CCNC(=O)CN(C)C(=O)CN(C)C(=O)CN(C)C(=O)CN(C)C(=O)CN(C)C(=O)CN(C)C(=O)CN(C)C(=O)CN(C)C(=O)CN(C)C(=O)CC[C@H](NC(=O)CC[C@H](NC(=O)CC[C@H](NC(=O)CCCCCCCCCCCCCCCCCCC(=O)O)C(=O)O)C(=O)O)C(=O)O)CC1)C(=O)N[C@@H](CCCNC(=N)N)C(=O)N(C)[C@@H](C)C(=O)N[C@@H](CCCNC(=N)N)C(=O)NCC(N)=O [Compound 62, C20DA-gGlu3-Sar9-AEPipAc-Tyr-Phe-NMeLeu-Nle-Arg-NMeAla-Arg-Gly-NH2] (HELM PEPTIDE1{[O=C(O)CCCCCCCCCCCCCCCCCCC(=O)[*:2]].[gGlu].[gGlu].[gGlu].[Sar].[Sar].[Sar].[Sar].[Sar].[Sar].[Sar].[Sar].[Sar].[O=C(CN1CCN(CCN[*:1])CC1)[*:2]].Y.F.[meL].[Nle].R.[meA].R.G.[am]}$$$$V2.0) | 3.1 | 440 | 14.2
CCCC[C@H](NC(=O)[C@H](CC(C)C)N(C)C(=O)[C@H](Cc1ccccc1)NC(=O)[C@H](Cc1ccc(O)cc1)NC(=O)CN1CCN(CCNC(=O)CN(C)C(=O)CN(C)C(=O)CN(C)C(=O)CN(C)C(=O)CN(C)C(=O)CN(C)C(=O)CC[C@H](NC(=O)CC[C@H](NC(=O)CCCCCCCCCCCCCCCCC(=O)O)C(=O)O)C(=O)O)CC1)C(=O)N[C@@H](CCCNC(=N)N)C(=O)N1CCC[C@H]1C(=O)N[C@@H](CCCNC(=N)N)C(=O)NCC(N)=O [Compound 71, C18DA-gGlu2-Sar6-AEPipAc-Tyr-Phe-NMeLeu-Nle-Arg-Pro-Arg-Gly-NH2] (HELM PEPTIDE1{[O=C(O)CCCCCCCCCCCCCCCCC(=O)[*:2]].[gGlu].[gGlu].[Sar].[Sar].[Sar].[Sar].[Sar].[Sar].[O=C(CN1CCN(CCN[*:1])CC1)[*:2]].Y.F.[meL].[Nle].R.P.R.G.[am]}$$$$V2.0) | 1.5 | 130 | 14.5
CCCC[C@H](NC(=O)[C@H](CC(C)C)N(C)C(=O)[C@H](Cc1ccccc1)NC(=O)[C@H](Cc1ccc(O)cc1)NC(=O)CN1CCN(CCNC(=O)CN(C)C(=O)CN(C)C(=O)CN(C)C(=O)CN(C)C(=O)CN(C)C(=O)CN(C)C(=O)CN(C)C(=O)CN(C)C(=O)CN(C)C(=O)CC[C@H](NC(=O)CC[C@H](NC(=O)CC[C@H](NC(=O)CCCCCCCCCCCCCCCCC(=O)O)C(=O)O)C(=O)O)C(=O)O)CC1)C(=O)N[C@@H](CCCNC(=N)N)C(=O)N(C)[C@@H](C)C(=O)N[C@@H](CCCNC(=N)N)C(=O)NCC(N)=O [Compound 73, C18DA-gGlu3-Sar9-AEPipAc-Tyr-Phe-NMeLeu-Nle-Arg-NMeAla-Arg-Gly-NH2] (HELM PEPTIDE1{[O=C(O)CCCCCCCCCCCCCCCCC(=O)[*:2]].[gGlu].[gGlu].[gGlu].[Sar].[Sar].[Sar].[Sar].[Sar].[Sar].[Sar].[Sar].[Sar].[O=C(CN1CCN(CCN[*:1])CC1)[*:2]].Y.F.[meL].[Nle].R.[meA].R.G.[am]}$$$$V2.0) | 1.9 | 540 | 15.6
CCCC[C@H](NC(=O)[C@H](CC(C)C)N(C)C(=O)[C@H](Cc1ccccc1)NC(=O)[C@H](Cc1ccc(O)cc1)NC(=O)CN1CCN(C(=O)CN(C)C(=O)CN(C)C(=O)CN(C)C(=O)CN(C)C(=O)CN(C)C(=O)CN(C)C(=O)CN(C)C(=O)CN(C)C(=O)CN(C)C(=O)CN(C)C(=O)CN(C)C(=O)CN(C)C(=O)CN(C)C(=O)CN(C)C(=O)CN(C)C(=O)CC[C@H](NC(=O)CC[C@H](NC(=O)CC[C@H](NC(=O)CCCCCCCCCCCCCCCCC(=O)O)C(=O)O)C(=O)O)C(=O)O)CC1)C(=O)N[C@@H](CCCNC(=N)N)C(=O)N1CCC[C@H]1C(=O)N[C@@H](CCCNC(=N)N)C(=O)NCC(N)=O [Compound 75, C18DA-gGlu3-Sar15-PipAc-Tyr-Phe-NMeLeu-Nle-Arg-Pro-Arg-Gly-NH2] (HELM PEPTIDE1{[O=C(O)CCCCCCCCCCCCCCCCC(=O)[*:2]].[gGlu].[gGlu].[gGlu].[Sar].[Sar].[Sar].[Sar].[Sar].[Sar].[Sar].[Sar].[Sar].[Sar].[Sar].[Sar].[Sar].[Sar].[Sar].[O=C(CN1CCN([*:1])CC1)[*:2]].Y.F.[meL].[Nle].R.P.R.G.[am]}$$$$V2.0) | 0.7 | 130 | 3.5
CCCC[C@H](NC(=O)[C@H](CC(C)C)N(C)C(=O)[C@H](Cc1ccccc1)NC(=O)[C@H](Cc1ccc(O)cc1)NC(=O)CN1CCN(C(=O)CN(C)C(=O)CN(C)C(=O)CN(C)C(=O)CN(C)C(=O)CN(C)C(=O)CN(C)C(=O)CN(C)C(=O)CN(C)C(=O)CN(C)C(=O)CN(C)C(=O)CN(C)C(=O)CN(C)C(=O)CN(C)C(=O)CN(C)C(=O)CN(C)C(=O)CC[C@H](NC(=O)CC[C@H](NC(=O)CC[C@H](NC(=O)CCCCCCCCCCCCCCCCC(=O)O)C(=O)O)C(=O)O)C(=O)O)CC1)C(=O)N[C@@H](CCN)C(=O)N1CCC[C@H]1C(=O)N[C@@H](CCCNC(=N)N)C(=O)NCC(N)=O [Compound 76, C18DA-gGlu3-Sar15-PipAc-Tyr-Phe-NMeLeu-Nle-Dbu-Pro-Arg-Gly-NH2] (HELM PEPTIDE1{[O=C(O)CCCCCCCCCCCCCCCCC(=O)[*:2]].[gGlu].[gGlu].[gGlu].[Sar].[Sar].[Sar].[Sar].[Sar].[Sar].[Sar].[Sar].[Sar].[Sar].[Sar].[Sar].[Sar].[Sar].[Sar].[O=C(CN1CCN([*:1])CC1)[*:2]].Y.F.[meL].[Nle].[Dab].P.R.G.[am]}$$$$V2.0) | 1.1 | 1100 | 6.2
